Experimental findings from ChEMBL document CHEMBL1201862, “PubChem BioAssay data set” (2004) are described below.

Structures are written as SMILES.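 Five compound concentrations were applied to cells in 96-well plates for 48 hours; endpoints were derived by simple linear interpolation of the resulting dose-response curve. At the GI50, growth is halved.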 Activity calls are given as the source filed them. Cut-off read from the data, not from the text of the source: active = GI50 up to about 1.1 µM and inactive = higher. Where only a bound is given, the exact number is not on record here.

Among the test systems are CCRF-CEM; DU-145; HCT-116; HT-29; IGROV-1; LOX IMVI; MCF7; MDA-MB-231; MDA-N; NCI-H23; OVCAR-8; SK-MEL-5; SR; U-251; EKVX; OVCAR-4; OVCAR-5; SNB-19; T47D.
Assay in all cases: NCI anticancer screen, dose series, 48 h

In the case of `COc1ccc(CC2NC(=O)/C=C/CC(C(C)C3OC3c3ccccc3)OC(=O)C(CC(C)C)OC(=O)C(C)CNC2=O)cc1Cl` (stereo not drawn), the GI50 with CCRF-CEM was < 1e-05 µM (active); in the assay on DU-145 it was 1.21e-05 µM (active); in the assay on HCT-116 it was < 1e-05 µM (active); in the assay with HT-29 it was < 1e-05 µM (active); in the assay on IGROV-1, 2.36e-05 µM (active); in the assay on LOX IMVI, < 1e-05 µM (active). Further, the GI50 in the assay with MCF7 is 1.34e-05 µM (active); in the assay with MDA-MB-231, 1.47e-05 µM (active); with MDA-N it was < 1e-05 µM (active); in the assay with NCI-H23, 2.07e-05 µM (active); with OVCAR-8, 2.32e-05 µM (active); in the assay with SK-MEL-5, < 1e-05 µM (active). For the same compound, the GI50 in the assay on SR was < 1e-05 µM (active); in the assay on U-251, 2.56e-05 µM (active).
As for `S=C=NC1CCC(c2cc3ccccc3s2)(N2CCCCC2)CC1` (stereo not drawn), the GI50 with CCRF-CEM was 0.577 µM (active); in the assay with DU-145 it was 2.08 µM (inactive); with EKVX, 2.16 µM (inactive); in the assay on HCT-116, 1.82 µM (inactive); with HT-29 it was 1.77 µM (inactive); with LOX IMVI it was 1.64 µM (inactive). The GI50 is 2.09 µM (inactive) in the assay with MCF7; 1.77 µM (inactive) in the assay on MDA-N; 1.92 µM (inactive) in the assay with NCI-H23; 1.87 µM (inactive) with OVCAR-4; 1.75 µM (inactive) in the assay with OVCAR-5; 1.95 µM (inactive) in the assay on OVCAR-8. For the same compound, the GI50 in the assay on SK-MEL-5 was 1.56 µM (inactive); with SNB-19, 2.79 µM (inactive); in the assay on SR, 0.071 µM (active); with T47D, 2.99 µM (inactive).
As for `COc1ccc(CSc2ccccc2Cn2cccc2)cc1OC`, the GI50 in the assay on CCRF-CEM was 50.5 µM (inactive); in the assay on DU-145, > 100 µM (inactive); with EKVX, 82.8 µM (inactive); in the assay on HCT-116 it was 89.1 µM (inactive); in the assay on HT-29 it was 99.8 µM (inactive); in the assay on IGROV-1, > 100 µM (inactive). In addition, the GI50 in the assay on LOX IMVI is 73.5 µM (inactive); in the assay with MCF7 it was 36.2 µM (inactive); in the assay with MDA-N, > 100 µM (inactive); in the assay with NCI-H23, 10.9 µM (inactive); with OVCAR-4, 39.8 µM (inactive); in the assay on OVCAR-5, > 100 µM (inactive). In addition, the GI50 in the assay with OVCAR-8 is > 100 µM (inactive); in the assay with SK-MEL-5 it was 22.4 µM (inactive); with SNB-19, > 100 µM (inactive); in the assay on SR, 50.5 µM (inactive); with T47D, 35.2 µM (inactive); with U-251, > 100 µM (inactive).
For the compound `COC(=O)C(CCSC)NC(=O)CNC(=O)CSc1nnc(COc2ccc(Cl)cc2)n1-c1ccccc1` (stereo not drawn), the GI50 is 7.83 µM (inactive) with CCRF-CEM; 23 µM (inactive) in the assay with DU-145; 16.9 µM (inactive) in the assay with HCT-116; 17.7 µM (inactive) with HT-29; 16.6 µM (inactive) with IGROV-1; 11.6 µM (inactive) with LOX IMVI. Also, the GI50 in the assay with MCF7 was 17.9 µM (inactive); in the assay with MDA-MB-231, 16 µM (inactive); in the assay with MDA-N it was 18.6 µM (inactive); with NCI-H23, 16.6 µM (inactive); in the assay with OVCAR-4, 19.3 µM (inactive); with OVCAR-5, 19 µM (inactive). Moreover, the GI50 in the assay with SK-MEL-5 was 17.3 µM (inactive); in the assay on SNB-19, 69.3 µM (inactive); in the assay on T47D it was 18.4 µM (inactive); in the assay with U-251, 17.3 µM (inactive).
On to `Oc1cccc(/C=N/N=c2/[nH][nH]/c(=N/N=C/c3cccc(O)c3)c3ccccc23)c1`, for which the GI50 is 3.83 µM (inactive) with CCRF-CEM; 23.9 µM (inactive) in the assay with DU-145; 18.3 µM (inactive) in the assay on EKVX; 11.5 µM (inactive) with HCT-116; 24.1 µM (inactive) with HT-29; 11.6 µM (inactive) with IGROV-1. Besides, the GI50 is 11.7 µM (inactive) in the assay with LOX IMVI; 26.7 µM (inactive) in the assay with MCF7; 7.89 µM (inactive) in the assay with MDA-MB-231; 16.2 µM (inactive) in the assay on NCI-H23; 17.4 µM (inactive) with OVCAR-4; 40.1 µM (inactive) with OVCAR-5. For the same compound, the GI50 was 2.72 µM (inactive) in the assay with OVCAR-8; 0.933 µM (active) in the assay on SK-MEL-5; 24.4 µM (inactive) with SNB-19; 2.55 µM (inactive) in the assay with SR; 15.7 µM (inactive) with T47D; 13.3 µM (inactive) in the assay with U-251.
For the compound `CCCC(=O)NC(Nc1ccc(S(=O)(=O)Nc2ccc(OC)nn2)cc1)(C(F)(F)F)C(F)(F)F`, the GI50 with CCRF-CEM, in the assay with DU-145, with EKVX, in the assay on HCT-116, in the assay with HT-29 and with IGROV-1 was > 100 µM (inactive) in each case. Moreover, the GI50 in the assay on LOX IMVI, in the assay with MDA-MB-231, in the assay with MDA-N, in the assay on NCI-H23, with OVCAR-4 and in the assay with OVCAR-5 was > 100 µM (inactive) each time. For the same compound, the GI50 in the assay on OVCAR-8, in the assay with SK-MEL-5, with SNB-19, in the assay with SR, in the assay on T47D and in the assay on U-251 was > 100 µM (inactive) throughout.
As to `COC(=O)Cc1ccc2c(c1)Sc1ccc(CC(=O)OC)cc1N2C`, the GI50 was 22 µM (inactive) with CCRF-CEM; > 71.6 µM (inactive) with DU-145; 42 µM (inactive) in the assay on EKVX; 24.1 µM (inactive) with HCT-116; 10.8 µM (inactive) in the assay on HT-29; 45.8 µM (inactive) in the assay on IGROV-1. Further, the GI50 in the assay on LOX IMVI was 14.3 µM (inactive); in the assay with MCF7, 9.57 µM (inactive); with MDA-MB-231, 13.4 µM (inactive); in the assay with NCI-H23, 28.6 µM (inactive); with OVCAR-4, 28.3 µM (inactive); in the assay on OVCAR-5 it was > 65.5 µM (inactive). For the same compound, the GI50 is 34.3 µM (inactive) in the assay with OVCAR-8; 12.3 µM (inactive) in the assay on SK-MEL-5; 44 µM (inactive) in the assay with SNB-19; 14.4 µM (inactive) in the assay on SR; 32.2 µM (inactive) with T47D; 19.4 µM (inactive) in the assay on U-251.
In the case of `O=C1Nc2cc([N+](=O)[O-])ccc2C(=O)N2CCC[C@@H]12`, the GI50 in the assay with CCRF-CEM, in the assay on DU-145, in the assay with EKVX, in the assay with HCT-116, in the assay with HT-29 and in the assay with IGROV-1 was > 100 µM (inactive) throughout. The GI50 in the assay on LOX IMVI, in the assay on MCF7, with MDA-MB-231, with NCI-H23, in the assay on OVCAR-4 and with OVCAR-5 was > 100 µM (inactive) throughout. For the same compound, the GI50 in the assay with OVCAR-8, in the assay on SK-MEL-5, with SNB-19, in the assay with SR, with T47D and with U-251 was > 100 µM (inactive) each time.
For the compound `CN(C)C(=S)N/N=C\C=N/NC(=S)N(C)C`, the GI50 in the assay on DU-145 was 0.155 µM (active); in the assay on EKVX it was 0.479 µM (active); in the assay on HT-29 it was 0.0625 µM (active); in the assay on IGROV-1, 0.47 µM (active); in the assay with LOX IMVI, 0.321 µM (active); in the assay with MCF7 it was 0.329 µM (active). In addition, the GI50 with MDA-MB-231 is > 100 µM (inactive); in the assay on MDA-N, 3.29 µM (inactive); in the assay with NCI-H23 it was 1.63 µM (inactive); in the assay with OVCAR-4 it was 0.148 µM (active); in the assay on OVCAR-5, 31.8 µM (inactive); in the assay with OVCAR-8 it was 0.175 µM (active). Besides, the GI50 was 0.349 µM (active) in the assay on SK-MEL-5, 0.731 µM (active) with SNB-19, 0.384 µM (active) with T47D and 0.0614 µM (active) in the assay with U-251.
Regarding `CCN(CC)CCO/N=C1/C=C2CCC3C(CC[C@@]4(C)C3CC[C@]4(C)O)[C@@]2(C)CC1` (stereo partly drawn), the GI50 in the assay on CCRF-CEM was 1.29 µM (inactive); with DU-145, 6.37 µM (inactive); with EKVX, 6.21 µM (inactive); in the assay on HCT-116, 4.21 µM (inactive); in the assay with HT-29, 1.82 µM (inactive); in the assay on IGROV-1, 4.8 µM (inactive). In addition, the GI50 with LOX IMVI was 4.1 µM (inactive); in the assay with MCF7, 3.95 µM (inactive); in the assay on MDA-MB-231 it was 14.1 µM (inactive); in the assay on MDA-N it was 2.49 µM (inactive); with NCI-H23 it was 6.75 µM (inactive); in the assay with OVCAR-4, 17.5 µM (inactive). Besides, the GI50 is 16.5 µM (inactive) in the assay on OVCAR-5; 5.21 µM (inactive) with OVCAR-8; 12.5 µM (inactive) in the assay on SK-MEL-5; 11.6 µM (inactive) in the assay on SNB-19; 7.59 µM (inactive) in the assay with T47D; 3.44 µM (inactive) in the assay with U-251.
As for `O=C(O)CCCNc1ncc2c(n1)-c1ccccc1OC2`, the GI50 in the assay with CCRF-CEM is > 100 µM (inactive); in the assay on DU-145, > 100 µM (inactive); in the assay with EKVX, > 100 µM (inactive); in the assay on HCT-116, > 100 µM (inactive); with HT-29, > 100 µM (inactive); with IGROV-1, 47.8 µM (inactive). Besides, the GI50 in the assay on LOX IMVI was > 100 µM (inactive); with MCF7, > 100 µM (inactive); in the assay on MDA-MB-231, > 100 µM (inactive); with MDA-N it was > 100 µM (inactive); in the assay on NCI-H23, 77.4 µM (inactive); with OVCAR-4 it was > 100 µM (inactive). The GI50 in the assay with OVCAR-5, in the assay with OVCAR-8, with SK-MEL-5, in the assay with SNB-19, with SR and in the assay with U-251 was > 100 µM (inactive) each time.
